Source: PMC9405466, “Mechanistic Insight into the Enzymatic Inhibition of β-Amyrin against Mycobacterial Rv1636: In Silico and In Vitro Approaches” (Biology, 2022)

Experiments:
[1] = molecular target: T1, Rv1636 (Mycobacterium tuberculosis, UniProt P9WFC9); assay: malachite green ATPase inhibition assay; assay type: biochemical; settings: ATP as substrate; TMD buffer pH 8.0, 10 mM MgCl2
[2] = molecular target: T1, Rv1636; assay: isothermal titration calorimetry (VP-ITC), one-site model; assay type: binding; settings: read-out: Ka1 (converted)
Excerpt: isothermal titration calorimetry (VP-ITC), one-site model on Rv1636

[3] = test system: Nc1ncnc2c1ncn2[C@@H]1O[C@H](COP(=O)(O)OP(=O)(O)OP(=O)(O)O)[C@@H](O)[C@H]1O; assay: purified protein; settings: 50 mM Tris pH 8.0, 10 mM MgCl2, 1 mM DTT, 0-80 µM ATP, 5 µM Rv1636, 1 h

T1 sequence (P9WFC9 whole entry, looked up): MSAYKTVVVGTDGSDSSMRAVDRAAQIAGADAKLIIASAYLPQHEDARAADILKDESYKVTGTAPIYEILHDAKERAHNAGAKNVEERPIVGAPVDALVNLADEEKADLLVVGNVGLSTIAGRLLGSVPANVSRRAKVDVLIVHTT

Compound	ATPase activity [1]	Kd [2]	Km [3]	kcat [3]
CC1(C)CC[C@]2(C)CC[C@]3(C)C(=CC[C@@H]4[C@@]5(C)CC[C@H](O)C(C)(C)[C@@H]5CC[C@]43C)[C@@H]2C1 [β-Amyrin]	in the presence of an increasing concentration of β-Amyrin, the result showed a consistent reduction	17.8 µM		
Rv1636 (Mycobacterium tuberculosis H37Rv)			5.187 ± 0.281 µM	0.000883 ± 1.7e-05 s⁻¹
